# According to ChEMBL document CHEMBL6083277, “Discovery of SZJK-0421: A Novel Potent, Low Toxicity, Selective Second Generation of CRM1 Inhibitor for the Treatment of Both Hematological and Solid Tumors” (J Med Chem, 2024):
# The source made the active and inactive calls. The calls are words filed in the database; no cut-off is given here.
# Columns and labels:
# MM1.S [1] = experiment: Antiproliferative activity against human MM1.S cells assessed as inhibition of cell growth incubated for 72 hrs by celltiter-glo assay; assay type: functional, cell-based
# RPMI-8226 = experiment: Antiproliferative activity against human RPMI-8226 cells assessed as inhibition of cell growth incubated for 72 hrs by celltiter-glo assay; assay type: functional, cell-based; settings: RPMI-8226, 72 h
# KMS-11 = experiment: Antiproliferative activity against human KMS-11 cells assessed as inhibition of cell growth incubated for 72 hrs by celltiter-glo assay; assay type: functional, cell-based; settings: KMS-11, 72 h
# [2] = Antiproliferative activity against human ARP-1 cells assessed as inhibition of cell growth incubated for 72 hrs by celltiter-glo assay; assay type: functional, cell-based; settings: ARP-1, 72 h
# LAMA-84 = experiment: Antiproliferative activity against human LAMA-84 cells assessed as inhibition of cell growth incubated for 72 hrs by celltiter-glo assay; assay type: functional, cell-based; settings: LAMA-84, 72 h
# MV4-11 = experiment: Antiproliferative activity against human MV4-11 cells assessed as inhibition of cell growth incubated for 72 hrs by celltiter-glo assay; assay type: functional, cell-based; settings: MV4-11, 72 h
# ARH-77 = experiment: Antiproliferative activity against human ARH-77 cells assessed as inhibition of cell growth incubated for 72 hrs by celltiter-glo assay; assay type: functional, cell-based; settings: ARH-77, 72 h
# MOLM-13 = experiment: Antiproliferative activity against human MOLM-13 cells assessed as inhibition of cell growth incubated for 72 hrs by celltiter-glo assay; assay type: functional, cell-based; settings: MOLM-13, 72 h
# HCT-116 = experiment: Antiproliferative activity against human HCT-116 cells assessed as inhibition of cell growth incubated for 72 hrs by celltiter-glo assay; assay type: functional, cell-based; settings: HCT-116, 72 h
# LoVo = experiment: Antiproliferative activity against human LoVo cells assessed as inhibition of cell growth incubated for 72 hrs by celltiter-glo assay; assay type: functional, cell-based
# BXPC-3 = experiment: Antiproliferative activity against human BXPC-3 cells assessed as inhibition of cell growth incubated for 72 hrs by celltiter-glo assay; assay type: functional, cell-based; settings: BXPC-3, 72 h
# AN3-CA = experiment: Antiproliferative activity against human AN3-CA cells assessed as inhibition of cell growth incubated for 72 hrs by celltiter-glo assay; assay type: functional, cell-based
# SW872 = experiment: Antiproliferative activity against human SW872 cells assessed as inhibition of cell growth incubated for 72 hrs by celltiter-glo assay; assay type: functional, cell-based; settings: SW872, 72 h
# [3] = biological target: Ran-specific GTPase-activating protein (Homo sapiens, UniProt P43487); experiment: Inhibition of RANBP1 nuclear export in human U2OS cells assessed as increase in fluorescence intensity measured for 15 mins by DAPI staining based fluorescence microscopic analysis; assay type: cell-based
# Sequence of Ran-specific GTPase-activating protein (P43487 whole entry): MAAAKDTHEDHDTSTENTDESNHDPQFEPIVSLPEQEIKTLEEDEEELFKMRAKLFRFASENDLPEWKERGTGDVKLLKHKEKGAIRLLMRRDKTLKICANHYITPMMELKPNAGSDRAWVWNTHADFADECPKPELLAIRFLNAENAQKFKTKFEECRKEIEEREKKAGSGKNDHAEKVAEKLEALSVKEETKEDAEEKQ
# [4] = biological target: Exportin-1 (Homo sapiens) (UniProt O14980); experiment: Reversible binding affinity to CRM1 in human U2OS cells incubated for 4 hrs by DAPI staining based fluorescence microscopic analysis; assay type: cell-based
# Sequence of Exportin-1 (Homo sapiens) (O14980 whole entry): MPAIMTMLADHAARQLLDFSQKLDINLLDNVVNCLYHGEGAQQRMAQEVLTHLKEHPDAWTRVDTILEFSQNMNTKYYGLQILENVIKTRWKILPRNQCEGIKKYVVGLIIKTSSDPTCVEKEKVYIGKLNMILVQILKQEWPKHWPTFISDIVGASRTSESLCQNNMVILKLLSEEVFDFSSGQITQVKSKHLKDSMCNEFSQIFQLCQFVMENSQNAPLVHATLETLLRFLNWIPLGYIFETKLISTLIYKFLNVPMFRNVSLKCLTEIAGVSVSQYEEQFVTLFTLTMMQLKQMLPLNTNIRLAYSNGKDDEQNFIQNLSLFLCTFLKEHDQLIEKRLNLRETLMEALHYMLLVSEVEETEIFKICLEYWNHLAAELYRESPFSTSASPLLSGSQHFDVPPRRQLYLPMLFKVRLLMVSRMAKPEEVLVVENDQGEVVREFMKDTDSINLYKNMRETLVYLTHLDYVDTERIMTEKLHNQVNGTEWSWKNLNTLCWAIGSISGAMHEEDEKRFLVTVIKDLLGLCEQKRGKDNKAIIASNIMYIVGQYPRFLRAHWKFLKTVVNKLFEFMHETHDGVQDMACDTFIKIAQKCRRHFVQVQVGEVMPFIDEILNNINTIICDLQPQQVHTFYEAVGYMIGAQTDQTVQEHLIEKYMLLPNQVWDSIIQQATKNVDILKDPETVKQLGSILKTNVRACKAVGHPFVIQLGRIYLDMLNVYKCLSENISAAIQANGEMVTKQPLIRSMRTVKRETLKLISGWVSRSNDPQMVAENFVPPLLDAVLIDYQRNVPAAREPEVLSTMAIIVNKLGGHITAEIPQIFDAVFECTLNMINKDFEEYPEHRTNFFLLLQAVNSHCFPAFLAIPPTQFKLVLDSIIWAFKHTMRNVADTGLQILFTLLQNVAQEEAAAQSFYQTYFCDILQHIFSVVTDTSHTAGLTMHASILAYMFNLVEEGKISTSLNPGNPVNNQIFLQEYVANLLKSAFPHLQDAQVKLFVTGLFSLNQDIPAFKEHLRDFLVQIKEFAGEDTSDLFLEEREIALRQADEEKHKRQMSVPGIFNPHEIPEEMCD
# MM1.S [5] = experiment: Inhibition of CRM1 protein expression in human MM1.S cells by Western blot analysis; assay type: functional, cell-based; settings: dose 0.25-1.25 µM
# MM1.S [6] = experiment: Inhibition of CRM1 protein expression in human MM1.S cells at 0.25 to 1.25 uM by Western blot analysis; assay type: functional, cell-based; settings: dose 0.25-1.25 µM, time 2-24 hrs
# MM1.S [7] = experiment: Induction of apoptosis in human MM1.S cells at 0.5 to 1 uM incubated for 48 hrs by Annexin V-FITC/PI staining based flow cytometry analysis; assay type: functional, cell-based; settings: dose 0.5-1 µM
# MM1.S [8] = experiment: Induction of apoptosis in human MM1.S cells assessed as increase in FOXO3A signal intensity; assay type: functional, cell-based
# [9] = Metabolic stability in human liver microsomes assessed as half life measured upto 60 mins in presence of NADPH by LC/MS-MS analysis; assay type: ADME, Microsome
# [10] = Metabolic stability in mouse liver microsomes assessed as half life measured upto 60 mins in presence of NADPH by LC/MS-MS analysis; assay type: ADME, Microsome
# [11] = Metabolic stability in rat liver microsomes assessed as half life measured upto 60 mins in presence of NADPH by LC/MS-MS analysis; assay type: ADME, Microsome
# [12] = Metabolic stability in dog liver microsomes assessed as half life measured upto 60 mins in presence of NADPH by LC/MS-MS analysis; assay type: ADME, Canis lupus familiaris, Microsome
# [13] = Metabolic stability in monkey liver microsomes assessed as half life measured upto 60 mins in presence of NADPH by LC/MS-MS analysis; assay type: ADME, Macaca mulatta, Microsome; settings: rhesus monkey
# [14] = Metabolic stability in human liver microsomes assessed as intrinsic clearance measured upto 60 mins in presence of NADPH by LC/MS-MS analysis; assay type: ADME, Microsome; settings: read-out: CLH
# [15] = Metabolic stability in mouse liver microsomes assessed as intrinsic clearance measured upto 60 mins in presence of NADPH by LC/MS-MS analysis; assay type: ADME, Microsome; settings: read-out: CLH
# [16] = Metabolic stability in rat liver microsomes assessed as intrinsic clearance measured upto 60 mins in presence of NADPH by LC/MS-MS analysis; assay type: ADME, Microsome; settings: read-out: CLH
# [17] = Metabolic stability in dog liver microsomes assessed as intrinsic clearance measured upto 60 mins in presence of NADPH by LC/MS-MS analysis; assay type: ADME, Canis lupus familiaris, Microsome; settings: read-out: CLH
# [18] = Metabolic stability in monkey liver microsomes assessed as intrinsic clearance measured upto 60 mins in presence of NADPH by LC/MS-MS analysis; assay type: ADME, Macaca mulatta, Microsome; settings: rhesus monkey, read-out: CLH
# [19] = Half life in male Sprague-Dawley rat at 2 mg/kg, iv measured upto 30 hrs by LC-MS/MS analysis; assay type: ADME, organism-based; settings: in vivo
# [20] = Half life in male Sprague-Dawley rat at 10 mg/kg, po measured upto 30 hrs by LC-MS/MS analysis; assay type: ADME, organism-based; settings: in vivo
# [21] = Cmax in male Sprague-Dawley rat at 10 mg/kg, po measured upto 30 hrs by LC-MS/MS analysis; assay type: ADME, organism-based; settings: in vivo
# [22] = Tmax in male Sprague-Dawley rat at 10 mg/kg, po measured upto 30 hrs by LC-MS/MS analysis; assay type: ADME, organism-based; settings: in vivo
# [23] = AUC (0 to t) in male Sprague-Dawley rat at 2 mg/kg, iv measured upto 30 hrs by LC-MS/MS analysis; assay type: ADME, organism-based; settings: in vivo
# [24] = AUC (0 to t) in male Sprague-Dawley rat at 10 mg/kg, po measured upto 30 hrs by LC-MS/MS analysis; assay type: ADME, organism-based; settings: in vivo
# [25] = AUC (0 to infinity) in male Sprague-Dawley rat at 2 mg/kg, iv measured upto 30 hrs by LC-MS/MS analysis; assay type: ADME, organism-based; settings: in vivo
# [26] = AUC (0 to infinity) in male Sprague-Dawley rat at 10 mg/kg, po measured upto 30 hrs by LC-MS/MS analysis; assay type: ADME, organism-based; settings: in vivo
# [27] = Oral bioavailability in male Sprague-Dawley rat at 10 mg/kg measured upto 30 hrs by LC-MS/MS analysis; assay type: ADME, organism-based; settings: in vivo
# [28] = biological target: Voltage-gated inwardly rectifying potassium channel KCNH2 (Homo sapiens, UniProt Q12809); experiment: Inhibition of hERG in HEK293 cells; assay type: toxicity, cell-based
# Sequence of Voltage-gated inwardly rectifying potassium channel KCNH2 (Q12809 whole entry): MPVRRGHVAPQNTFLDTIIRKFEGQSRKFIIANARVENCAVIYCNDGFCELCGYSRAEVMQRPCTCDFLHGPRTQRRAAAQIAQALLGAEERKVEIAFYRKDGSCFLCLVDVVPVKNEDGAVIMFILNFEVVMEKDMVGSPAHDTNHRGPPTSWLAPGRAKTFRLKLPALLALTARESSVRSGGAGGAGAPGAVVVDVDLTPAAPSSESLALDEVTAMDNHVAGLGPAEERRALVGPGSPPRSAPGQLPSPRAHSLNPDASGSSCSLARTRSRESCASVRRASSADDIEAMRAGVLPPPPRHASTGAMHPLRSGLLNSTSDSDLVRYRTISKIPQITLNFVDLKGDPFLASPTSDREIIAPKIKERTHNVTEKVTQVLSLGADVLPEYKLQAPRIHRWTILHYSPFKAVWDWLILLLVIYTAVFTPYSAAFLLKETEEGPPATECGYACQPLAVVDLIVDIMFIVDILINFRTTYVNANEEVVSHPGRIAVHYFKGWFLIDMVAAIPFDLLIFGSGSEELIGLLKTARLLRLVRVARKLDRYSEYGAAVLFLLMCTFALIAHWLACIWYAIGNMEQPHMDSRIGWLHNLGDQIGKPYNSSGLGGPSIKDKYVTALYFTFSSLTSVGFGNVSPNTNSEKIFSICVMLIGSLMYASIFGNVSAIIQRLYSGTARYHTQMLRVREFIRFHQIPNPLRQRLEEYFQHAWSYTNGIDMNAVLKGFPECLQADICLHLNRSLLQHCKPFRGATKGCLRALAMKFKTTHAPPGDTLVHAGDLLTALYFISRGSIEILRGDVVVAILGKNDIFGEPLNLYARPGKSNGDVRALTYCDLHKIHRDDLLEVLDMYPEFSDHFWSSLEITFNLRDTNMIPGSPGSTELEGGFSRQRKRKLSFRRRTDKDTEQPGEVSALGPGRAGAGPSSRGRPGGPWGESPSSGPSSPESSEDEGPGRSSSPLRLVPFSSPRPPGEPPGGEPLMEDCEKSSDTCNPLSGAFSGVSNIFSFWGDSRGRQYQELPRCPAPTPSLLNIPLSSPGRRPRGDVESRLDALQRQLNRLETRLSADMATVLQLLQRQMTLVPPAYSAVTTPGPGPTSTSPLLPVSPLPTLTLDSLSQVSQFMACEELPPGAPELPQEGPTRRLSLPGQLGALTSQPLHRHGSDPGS
# [29] = Cmax in male Sprague-Dawley rat plasma at 10 mg/kg, IG measured at 6 hrs by LC-MS/MS analysis; assay type: ADME, organism-based; settings: po
# [30] = AUC in male Sprague-Dawley rat brain at 10 mg/kg, IG measured at 6 hrs by LC-MS/MS analysis; assay type: ADME, organism-based; settings: po
# [31] = AUC in male Sprague-Dawley rat plasma at 10 mg/kg, IG measured at 6 hrs by LC-MS/MS analysis; assay type: ADME, organism-based; settings: po
# [32] = Toxicity in BALB/c mouse assessed as decrease in body weight at 30 mg/kg, po administered once daily for 21 days; assay type: organism-based; settings: in vivo, 504 h, time 21 day
# [33] = Toxicity in BALB/c mouse assessed as animal death at 60 mg/kg, po measured on day 6,7 and 11; assay type: organism-based; settings: in vivo, 576 h, time 24 day
# [34] = Toxicity in BALB/c mouse assessed as appearance of erectile hair at 60 mg/kg, po administered once daily for 21 days; assay type: organism-based; settings: in vivo, 504 h, time 21 day
# [35] = Toxicity in BALB/c mouse assessed as appearance of loose stools at 60 mg/kg, po administered once daily for 21 days; assay type: organism-based; settings: in vivo, 504 h, time 21 day
# [36] = Toxicity in NOD-SCID mouse implanted with human MM1.S cells assessed as body weight loss at 15 mg/kg, po measured upto 21 days; assay type: organism-based; settings: in vivo, 504 h, time < 21 day
# [37] = Toxicity in NOD-SCID mouse assessed as shortening of villi in intestine at 15 mg/kg, po measured every 2 days for 21 days by H and E staining based analysis; assay type: organism-based; settings: in vivo, 504 h, time 21 day
# [38] = Toxicity in NOD-SCID mouse assessed as hyperplasia of crypt in intestine at 60 mg/kg, po measured every 2 days for 21 days by H and E staining based analysis; assay type: organism-based; settings: in vivo, 504 h, time 21 day
# [39] = Toxicity in NOD-SCID mouse assessed as loss of crypt depth in intestine at 60 mg/kg, po measured every 2 days for 21 days by H and E staining based analysis; assay type: organism-based; settings: in vivo, 504 h, time 21 day
# [40] = Toxicity in NOD-SCID mouse assessed as decrease in villus height to crypt depth ratio at 60 mg/kg, po measured every 2 days for 21 days by H and E staining based analysis; assay type: organism-based; settings: in vivo, 504 h, time 21 day
smiles,measurement,setting,value
NC(=O)/C(=C/n1cnc(-c2cc(C(F)(F)F)cc(C(F)(F)F)c2)n1)c1cncnc1 [ELTANEXOR],IC50,MM1.S [1],84.7 nM
same,IC50,RPMI-8226,217 nM
same,IC50,KMS-11,1260 nM
same,IC50,[2],2700 nM
same,IC50,LAMA-84,2910 nM
same,IC50,MV4-11,55.6 nM
same,IC50,ARH-77,435 nM
same,IC50,MOLM-13,435 nM
same,IC50,HCT-116,130 nM
same,IC50,LoVo,304 nM
same,IC50,BXPC-3,2170 nM
same,IC50,AN3-CA,1170 nM
same,IC50,SW872,1090 nM
same,IC50,[3],550 nM
same,Activity,[4],Active
same,inhibition,MM1.S [5],Dose-dependent-effect
same,inhibition,MM1.S [6],Time-dependent-effect
same,Activity,MM1.S [7],Active
same,Activity,MM1.S [8],Active
same,half-life,[9],> 2 h
same,half-life,[10],> 2 h
same,half-life,[11],> 2 h
same,half-life,[12],> 2 h
same,half-life,[13],> 2 h
same,microsomal CLint,[14],0.2 µL/min/mg
same,microsomal CLint,[15],15.6 µL/min/mg
same,microsomal CLint,[16],15.5 µL/min/mg
same,microsomal CLint,[17],3.2 µL/min/mg
same,microsomal CLint,[18],11.8 µL/min/mg
same,half-life,[19],3 h
same,half-life,[20],2.7 h
same,Cmax,[21],720 ng/mL
same,Tmax,[22],1 h
same,AUC(0-t) at 30 h,[23],963 ng·h/mL
same,AUC(0-t) at 30 h,[24],2540 ng·h/mL
same,AUC(0-inf),[25],998 ng·h/mL
same,AUC(0-inf),[26],2590 ng·h/mL
same,bioavailability,[27],52%
same,IC50,[28],8200 nM
same,Cmax,[29],141 ng/mL
same,AUC at 6 h,[30],83.3 ng·h/mL
same,AUC at 6 h,[31],1940 ng·h/mL
same,Activity,[32],Non-toxic
same,Activity,[33],Toxic
same,Activity,[34],Toxic
same,Activity,[35],Toxic
same,Activity,[36],Toxic
same,Activity,[37],Non-toxic
same,Activity,[38],Non-toxic
same,Activity,[39],Non-toxic
same,Activity,[40],Non-toxic
